SMILES strings stand for the structures.

The assay has as its system ATF4 luciferase reporter in HEK293T cells. Description: ATF4-Luc assay, HEK293T cells carrying the ATF4 luciferase reporter (in vitro model of VWMD). Type of assay: cell-based. Particulars: Homo sapiens, HEK-293T; HEK293T ATF4 luciferase reporter cells, 1 μg/mL tunicamycin, 7 hours; read-out: ATF4-Luc EC50. As for the experimental part:
In order to test exemplary compounds of the invention in a cellular context, a stable VWMD cell line was first constructed. The ATF4 reporter was prepared by fusing the human full-length ATF4 5′-UTR (NCBI Accession No. BC022088.2) in front of the firefly luciferase (FLuc) coding sequence lacking the initiator methionine as described in Sidrauski et al (eLife 2013). The construct was used to produce recombinant retroviruses using standard methods and the resulting viral supernatant was used to transduce HEK293T cells, which were then subsequently selected with puromycin to generate a stable cell line.
HEK293T cells carrying the ATF4 luciferase reporter were plated on polylysine coated 384-well plates (Greiner Bio-one) at 30,000 cells per well. Cells were treated the next day with 1 μg/mL tunicamycin and 200 nM of a compound of Formula (I) for 7 hours. Luminescence was measured using One Glo (Promega) as specified by the manufacturer. Cells were maintained in DMEM with L-glutamine supplemented with 10% heat-inactivated FBS (Gibco) and Antibiotic-Antimycotic solution (Gibco).
One may read the EC50 as the concentration that produces a half-maximal response. For `O=C(COc1ccc(Cl)c(F)c1)NC12CCC(NC(=O)COc3ccc(C(F)(F)F)nc3)(CC1)[C@H](O)C2` (single isomer, unassigned) [Compound 302], the EC50 was less than 10 nM.

Regarding `O=C(COc1ccc(Cl)c(F)c1)NC12CCC(NC(=O)COc3ccnc(C(F)(F)F)c3)(CC1)[C@@H](O)C2` (single isomer, unassigned) [Compound 318], the concentration for a half-maximal effect (EC50) lay within 10 to 50 nM.

With `O=C(COc1ccc(Cl)c(F)c1)NC12CCC(NC(=O)COc3ccc(C(F)(F)F)nc3)(CC1)[C@@H](F)C2` (single isomer, unassigned) [Compound 372], the EC50 lay in the range of 50 to 250 nM.

Regarding `O=C(CCn1ncc(Cl)cc1=O)NC12CC(NC(=O)COc3ccc(Cl)c(F)c3)(C1)C2` [Compound 104, N-{3-[2-(4-chloro-3-fluorophenoxy)acetamido]bicyclo[1.1.1]pentan-1-yl}-3-(4-chloro-6-oxopyridazin-1(6H)-yl)propanamide], the 50% effective concentration (EC50) lay within 250 to 500000 nM.

As for `O=C(COCCc1ccc(Cl)cc1)NC12CC(NC(=O)COc3ccc(Cl)c(F)c3)(C1)C2` [Compound 135, 2-(4-chloro-3-fluorophenoxy)-N-(3-{2-[2-(4-chlorophenyl)ethoxy]acetamido}-bicyclo[1.1.1]pentan-1-yl)acetamide], the EC50 lay in the range of 250 to 500000 nM.

Consider `Cc1cccc(CCOCC(=O)NC23CC(NC(=O)COc4ccc(Cl)c(F)c4)(C2)C3)c1` [Compound 136, 2-(4-chloro-3-fluorophenoxy)-N-(3-{2-[2-(3-methylphenyl)ethoxy]acetamido}-bicyclo[1.1.1]pentan-1-yl)acetamide], for which the 50% effective concentration (EC50) was in the range of 250 to 500000 nM.

Regarding `N#Cc1cccc(COCC(=O)NC23CC(NC(=O)COc4ccc(Cl)c(F)c4)(C2)C3)c1` [Compound 138, 2-(4-chloro-3-fluorophenoxy)-N-(3-{2-[(3-cyanophenyl)methoxy]acetamido}-bicyclo[1.1.1]pentan-1-yl)acetamide], the EC50 was in the range of 250 to 500000 nM.

As to `N#Cc1ccc(COCC(=O)NC23CC(NC(=O)COc4ccc(Cl)c(F)c4)(C2)C3)cc1` [Compound 139, 2-(4-chloro-3-fluorophenoxy)-N-(3-{2-[(4-cyanophenyl)methoxy]acetamido}-bicyclo[1.1.1]pentan-1-yl)acetamide], the EC50 is 250 to 500000 nM.

Regarding `Cc1ccc(COCC(=O)NC23CC(NC(=O)COc4ccc(Cl)c(F)c4)(C2)C3)cc1` [Compound 144, 2-(4-chloro-3-fluorophenoxy)-N-(3-{2-[(4-methylphenyl)methoxy]acetamido}-bicyclo[1.1.1]pentan-1-yl)acetamide], the EC50 lay in the range of 250 to 500000 nM.

For the compound `Cc1ccc(CCOCC(=O)NC23CC(NC(=O)COc4ccc(Cl)c(Cl)c4)(C2)C3)cc1` [Compound 154, 2-(3,4-dichlorophenoxy)-N-(3-{2-[2-(4-methylphenyl)ethoxy]acetamido}-bicyclo[1.1.1]pentan-1-yl)acetamide], the EC50 fell in the range of 250 to 500000 nM.

On to `O=C(CCOCc1cccc(Cl)c1)NC12CC(NC(=O)COc3ccc(Cl)c(F)c3)(C1)C2` [Compound 163, N-{3-[2-(4-chloro-3-fluorophenoxy)acetamido]bicyclo[1.1.1]pentan-1-yl}-3-[(3-chlorophenyl)methoxy]propanamide], for which the EC50 is 250 to 500000 nM.

As for `O=C(COc1ccc(Cl)c(F)c1)NC12CC(NC(=O)OCCCc3cccc(Cl)c3)(C1)C2` [Compound 166, 3-(3-chlorophenyl)propyl {3-[2-(4-chloro-3-fluorophenoxy)acetamido]-bicyclo[1.1.1]pentan-1-yl}carbamate], the EC50 lay in the range of 250 to 500000 nM.

On to `O=C(CCOc1cccc(Cl)c1)NC12CC(NC(=O)COc3ccc(Cl)c(Cl)c3)(C1)C2` [Compound 169, 3-(3-chlorophenoxy)-N-{3-[2-(3,4-dichlorophenoxy)acetamido]bicyclo-[1.1.1]pentan-1-yl}propanamide], for which the half-maximal effective concentration (EC50) fell in the range of 250 to 500000 nM.

For `O=C(COc1ccc(Cl)c(Cl)c1)NC12CC(NC(=O)OCCCc3cccc(Cl)c3)(C1)C2` [Compound 174, 3-(3-chlorophenyl)propyl {3-[2-(3,4-dichlorophenoxy)acetamido]-bicyclo[1.1.1]pentan-1-yl}carbamate], the EC50 is 250 to 500000 nM.

As for `Cc1cc(Cl)ncc1OCC(=O)NC12CC(NC(=O)COc3ccc(Cl)c(F)c3)(C1)C2` [Compound 243, 2-(4-chloro-3-fluorophenoxy)-N-(3-{2-[(6-chloro-4-methylpyridin-3-yl)oxy]acetamido}bicyclo[1.1.1]pentan-1-yl)acetamide], the 50% effective concentration (EC50) lay within 250 to 500000 nM.

As to `Cc1nc(F)ccc1OCC(=O)NC12CC(NC(=O)COc3ccc(Cl)c(F)c3)(C1)C2` [Compound 249, 2-(4-chloro-3-fluorophenoxy)-N-(3-{2-[(6-fluoro-2-methylpyridin-3-yl)oxy]acetamido}bicyclo[1.1.1]pentan-1-yl)acetamide], the EC50 was in the range of 250 to 500000 nM.

Regarding `O=C(COc1ccc(Cl)c(F)c1)NC12CC(NC(=O)COc3cnc4cc[nH]c4c3)(C1)C2` [Compound 254, 2-(4-chloro-3-fluorophenoxy)-N-(3-{2-[(1H-pyrrolo[3,2-b]pyridin-6-yl)oxy]acetamido}bicyclo[1.1.1]pentan-1-yl)acetamide], the half-maximal effective concentration (EC50) was 250 to 500000 nM.

With `NCc1ccc(OCC(=O)NC23CC(NC(=O)COc4ccc(Cl)c(F)c4)(C2)C3)cn1` [Compound 259, 2-{[6-(aminomethyl)pyridin-3-yl]oxy}-N-{3-[2-(4-chloro-3-fluorophenoxy)acetamido]bicyclo[1.1.1]pentan-1-yl}acetamide], the EC50 is 250 to 500000 nM.

In the case of `N#Cc1cc(OCC(=O)NC23CC(NC(=O)COc4ccc5c(c4)OC(F)(F)O5)(C2)C3)ccn1` [Compound 270, 2-[(2-cyanopyridin-4-yl)oxy]-N-(3-{2-[(2,2-difluoro-2H-1,3-benzodioxol-5-yl)oxy]acetamido}bicyclo[1.1.1]pentan-1-yl)acetamide], the EC50 is 250 to 500000 nM.

With `N#Cc1cc(OCC(=O)NC23CC(NC(=O)COc4ccc(Cl)c(F)c4)(C2)C3)ccn1` [Compound 277, 2-(4-chloro-3-fluorophenoxy)-N-(3-{2-[(2-cyanopyridin-4-yl)oxy]acetamido}bicyclo[1.1.1]pentan-1-yl)acetamide], the EC50 was 250 to 500000 nM.

Turning to `O=C(COCc1ccc(OC(F)F)nc1)NC12CC(NC(=O)COc3ccc(Cl)c(F)c3)(C1)C2` [Compound 279, 2-(4-chloro-3-fluorophenoxy)-N-[3-(2-{[6-(difluoromethoxy)pyridin-3-yl]methoxy}acetamido)bicyclo[1.1.1]pentan-1-yl]acetamide], the EC50 lay in the range of 250 to 500000 nM.

In the case of `O=C(COc1ccc(Cl)c(F)c1)NC12CC(NCC(=O)c3ccc(Cl)c(F)c3)(C1)C2` [Compound 291, 2-(4-chloro-3-fluorophenoxy)-N-(3-{[2-(4-chloro-3-fluorophenyl)-2-oxoethyl]amino}bicyclo[1.1.1]pentan-1-yl)acetamide], the EC50 was in the range of 250 to 500000 nM.

On to `O=C(COc1ccc(Cl)c(F)c1)NC12CC(NC(=O)CC(=O)c3ccc(Cl)cc3)(C1)C2` [Compound 293, N-{3-[2-(4-chloro-3-fluorophenoxy)acetamido]bicyclo[1.1.1]pentan-1-yl}-3-(4-chlorophenyl)-3-oxopropanamide], for which the EC50 fell in the range of 250 to 500000 nM.

Regarding `O=C(COc1ccc(Cl)c(F)c1)NC12CCC(NC(=O)COc3ccnn(CC(F)(F)F)c3=O)(CC1)C(O)C2` (stereo not drawn) [Compound 333, 2-(4-chloro-3-fluorophenoxy)-N-[3-hydroxy-4-(2-{[3-oxo-2-(2,2,2-trifluoroethyl)-2,3-dihydropyridazin-4-yl]oxy}acetamido)bicyclo[2.2.2]octan-1-yl]acetamide], the concentration for a half-maximal effect (EC50) was in the range of 250 to 500000 nM.

As to `O=C(COc1ccc(Cl)c(F)c1)NC12CCC(NCCOc3ccc(Cl)c(Cl)c3)(CC1)CC2O` (stereo not drawn) [Compound 337, 2-(4-chloro-3-fluorophenoxy)-N-(4-{[2-(3,4-dichlorophenoxy)ethyl]amino}-2-hydroxybicyclo[2.2.2]octan-1-yl)acetamide], the EC50 is less than 10 nM.

Take `O=C(COc1ccc(Cl)c(F)c1)NC12CC(NC(=O)Cc3ccc(C(F)(F)F)nc3)(C1)C2` [Compound 342, 2-(4-chloro-3-fluorophenoxy)-N-(3-{2-[6-(trifluoromethyl)pyridin-3-yl]acetamido}bicyclo[1.1.1]pentan-1-yl)acetamide]: the EC50 was 250 to 500000 nM.

On to `COc1ccc(/C=C/C(=O)NC23CC(NC(=O)COc4ccc(Cl)c(F)c4)(C2)C3)cc1` [Compound 347, (2E)-N-{3-[2-(4-chloro-3-fluorophenoxy)acetamido]bicyclo[1.1.1]pentan-1-yl}-3-(4-methoxyphenyl)prop-2-enamide], for which the EC50 is 250 to 500000 nM.

Regarding `O=C(/C=C/c1ccc(C(F)(F)F)nc1)NC12CC(NC(=O)COc3ccc(Cl)c(F)c3)(C1)C2` [Compound 351, (2E)-N-{3-[2-(4-chloro-3-fluorophenoxy)acetamido]bicyclo[1.1.1]pentan-1-yl}-3-[6-(trifluoromethyl)pyridin-3-yl]prop-2-enamide], the 50% effective concentration (EC50) is 250 to 500000 nM.

For the compound `O=C(COc1ccc(Cl)c(F)c1)NC12CCC(NC(=O)COc3ccc(F)cc3)(CC1)[C@@H](O)C2` [Compound 354, 2-(4-chloro-3-fluorophenoxy)-N-{(3S)-4-[2-(4-fluorophenoxy)acetamido]-3-hydroxybicyclo[2.2.2]octan-1-yl}acetamide], the EC50 is less than 10 nM.

As to `O=C(COc1ccc(Cl)c(F)c1)NC12CC(NC(=O)COc3ccnn3C3CC3)(C1)C2` [Compound 371, 2-(4-chloro-3-fluorophenoxy)-N-(3-{2-[(1-cyclopropyl-1H-pyrazol-5-yl)oxy]acetamido}bicyclo[1.1.1]pentan-1-yl)acetamide], the EC50 was in the range of 250 to 500000 nM.
